Measured values reported in patent US8785494B2, “Calcium sensing receptor modulating compounds and pharmaceutical use thereof” (LEO-Pharma A/S, priority 2009, dated 2014).
pEC50: −log10 of the molar value.

Columns and labels:
human CaSR = molecular target: T1, human CaSR (Homo sapiens, UniProt P41180); experiment: Functional whole cell assay (IP1 accumulation, IP-One htrf) in CHO-K1 cells stably expressing human CaSR; assay type: cell-based; conditions: 2 mM Ca2+, 1 hour at 37° C., IP1 readout, read-out: Functional whole cell assay (modulation of human CaSR)
T1 construct: The ORF coding for the human CaSR (genebank: NM_000388) was acquired from Invitrogen Corp, USA
T1 sequence (P41180 20-1078): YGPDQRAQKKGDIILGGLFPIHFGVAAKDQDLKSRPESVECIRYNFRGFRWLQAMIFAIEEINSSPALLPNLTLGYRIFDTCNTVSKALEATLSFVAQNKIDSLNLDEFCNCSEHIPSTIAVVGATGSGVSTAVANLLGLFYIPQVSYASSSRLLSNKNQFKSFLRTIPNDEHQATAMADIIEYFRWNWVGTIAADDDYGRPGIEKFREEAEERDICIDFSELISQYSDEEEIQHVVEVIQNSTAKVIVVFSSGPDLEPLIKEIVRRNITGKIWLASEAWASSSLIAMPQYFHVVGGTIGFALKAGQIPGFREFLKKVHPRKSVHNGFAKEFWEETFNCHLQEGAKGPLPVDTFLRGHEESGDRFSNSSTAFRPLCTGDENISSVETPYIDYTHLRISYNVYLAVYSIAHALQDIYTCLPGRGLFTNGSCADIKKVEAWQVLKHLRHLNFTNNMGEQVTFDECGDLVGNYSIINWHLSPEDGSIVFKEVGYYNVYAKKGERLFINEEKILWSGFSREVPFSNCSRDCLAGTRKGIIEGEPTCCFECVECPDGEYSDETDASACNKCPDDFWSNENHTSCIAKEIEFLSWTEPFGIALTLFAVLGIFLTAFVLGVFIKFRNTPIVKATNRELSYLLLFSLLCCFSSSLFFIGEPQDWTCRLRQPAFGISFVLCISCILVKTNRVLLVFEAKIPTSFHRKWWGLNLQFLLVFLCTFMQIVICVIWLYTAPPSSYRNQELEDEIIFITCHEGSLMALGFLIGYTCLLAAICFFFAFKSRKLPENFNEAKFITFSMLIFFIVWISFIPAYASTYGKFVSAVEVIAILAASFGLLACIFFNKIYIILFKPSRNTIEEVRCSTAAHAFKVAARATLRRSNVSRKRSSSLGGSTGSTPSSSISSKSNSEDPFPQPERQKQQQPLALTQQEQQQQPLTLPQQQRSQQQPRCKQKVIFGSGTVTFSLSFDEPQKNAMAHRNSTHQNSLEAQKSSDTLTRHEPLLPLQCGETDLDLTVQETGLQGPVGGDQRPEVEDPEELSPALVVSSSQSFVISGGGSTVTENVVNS
From the text: The assay investigates a compound's functional ability to act as a biological positive modulator on the human CaSR. Activation of the receptor expressed on CHO-K1 cells is detected through the G alpha q pathway, the activation of phospholipase C and the accumulation of intracellular inositol phosphate (IP) as described earlier [Sandrine Ferry, Bruno Chatel, Robert H. Dodd, Christine Lair, Danielle Gully, Jean-Pierre Maffrand, and Martial Ruat. Effects of Divalent Cations and of a Calcimimetic on Adrenocorticotropic Hormone Release in Pituitary Tumor Cells. BIOCHEMICAL AND BIOPHYSICAL RESEARCH COMMUNICATIONS 238, 866-873 (1997)]. The human CaSR is stably expressed on a CHO-K1 cell clone, stimulated with a basal level of calcium and challenged with the tested compound. The level of IP1 is determined using the IP-One htrf kit (Cisbio, France). CHO-K1 cells not transfected with the CaSR fail to elicit an IP1 response upon calcium and/or compound stimulation.
The ORF coding for the human CaSR (genebank: NM_000388) was acquired from Invitrogen Corp, USA and subsequently cloned into the mammalian expression vector pCDA3.1.
CHO-K1 cells were transfected using Lipofectamine according to manufacturer's protocol (400.000 cells/well were seeded in a 6-well plate and transfected after 24 hours using 2 μg DNA and 5 μl lipofectamine). After another 24 hours the cells were detached, seeded and subjected to 1 mg/ml of G-418. Following 7 days growth single clones were picked, the CaSR expression evaluated using the 5C10 antibody against CaSR, the clones with the highest expression were selected and tested for functional response. The preferred clone was continuously cultured according to standard procedures described in ATCC (American Type Culture Collection) protocols for CHO-K1 with the addition of 500 μg/ml G-418.
On the assay day cells were harvested and resuspended to 13*10^6 cells/ml in stimulation buffer (containing: Hepes 10 mM, MgCl2 0.5 mM, KCl 4.2 mM, NaCl 146 mM, glucose 5.5 mM, LiCl 50 mM at pH 7.4). Five μl cell solution were pipetted into a well (white 384-well plate, Perkin Elmer Optiplate) followed by 5 μl compound diluted in a Ca^2+-containing (to the final concentration of 2 mM) buffer. After compound stimulation for 1 hour at 37° C. 10 μl of IP-One assay reagents were added and incubated for another 1 hour at room temperature. Finally the plate was read using a Perkin Elmer EnVision, according to protocol supplied by the IP-One assay kit manufacturer. The FRET ratio was calculated by dividing the 665 nm emission signal with that of the 615 nm.

[1] = Clearance in rat hepatocytes; assay type: in vitro ADME; conditions: test compound 0.5 μM, 1×10^6 cells/mL, scaled to rat body weight
Description: Test compound concentration is 0.5 μM and cell concentration is 1×10^6 cells/mL in the incubation. The described method is manual and is based on a 24-well format.
The liver is collected from a male Spraque-Dawley rat. One liver lobe is cut off and flushed with various buffers to loosen the cells. The cell suspension is washed and centrifuged, and the cell density is adjusted to 1.2×10^6 cells/mL with Krebs-Henseleit buffer, pH 7.4, containing 0.2% bovine serum albumin (BSA). Only cell suspensions with viability above 80% are used.
A volume of 315 μL cell suspension per well is added to 24-well plates and preincubated at 37° C. for 20 min. Test compound (0.5 μM) is added, and the mixture is incubated for 20 minutes. Incubations are run in duplicate. Samples are withdrawn at predetermined stop times and mixed with methanol containing internal standard (IS) to terminate all enzyme activity and precipitate proteins.
The percentage of organic solvent in the incubations is less than 1%. Careful inspections of reagents are performed prior to the start of any experiment to ensure all reagents are in solution.
The 24-well plates are centrifuged. Test compound depletion, using a compound specific LC/MS/MS method, is determined. The logarithm of the peak area ratios of test compound to internal standard (IS) versus incubation time is plotted in a graph
The rate constant (k) (min^−1) of test compound depletion is calculated from the linear part of the curve and the half-time (t1/2) in minutes can be calculated from the rate constant (Eq. 1). t1/2=(ln 2)/k (Eq. 1)
Intrinsic clearance (Clint) (mL/min/10^6 cells) is calculated from: Clint=k/c (Eq. 2) where c is the cell concentration in 10^6 cells/mL.
Conversion to apparent clearance (Clapp) (mL/min/kg) is done by Eq. 3: Clapp=Clint×a×b/d (Eq. 3) where a, b and d are the scaling factors for normalizing Clint to rat body weight.
The following rat scaling factors are used: • a: 120 (cells/liver weight (10^6 cells/g)) • b: 10 (liver weight (g)) • d: 0.25 (body weight (kg))
Apparent clearance is a measure of compound elimination from the liver. Apparent clearance below approximately 25 mL/min/kg rat body weight (corresponding to extraction ratio of approx. 30%) is considered as low clearance (high metabolic stability). Apparent clearance above approximately 165 mL/min/kg rat body weight (corresponding to extraction ratio of approx. 75%) is considered as high clearance (low metabolic stability).

Compound	pEC50 (human CaSR)	Clearance (Clapp) in rat hepatocytes [1]
COc1cc([C@@H](C)NC2CC[C@H](c3ccc(OCC(=O)O)c(C(F)(F)F)c3)C2)ccc1F (mixture of isomers) [Compound 1021, 2-[4-[(1S)-3-[[(1R)-1-(4-fluoro-3-methoxy-phenyl)ethyl]amino]cyclopentyl]-2-(trifluoromethyl)phenoxy]acetic acid]	> 6.30	A (A: <30 mL/min/kg)
C[C@@H](NC1CCC(c2ccc(CCC(=O)O)c(C(F)(F)F)c2)C1)c1cccc2ccccc12 (single isomer, unassigned) [Compound 1007]	> 6.30	B (B: 30-55 mL/min/kg)
COc1cc([C@@H](C)NC2CC[C@H](c3ccc(CCC(=O)O)c(C(F)(F)F)c3)C2)ccc1F (single isomer, unassigned) [Compound 1012]	> 6.30	A (A: <30 mL/min/kg)
COc1cc([C@@H](C)NC2CC[C@@H](c3cc(OCC(=O)O)cc(C(F)(F)F)c3)C2)ccc1F (single isomer, unassigned) [Compound 1022]	> 6.30	A (A: <30 mL/min/kg)
C[C@@H](NC1CC[C@@H](c2cc(OCC(=O)O)cc(C(F)(F)F)c2)C1)c1cccc2ccccc12 (single isomer, unassigned) [Compound 1023]	> 6.30	B (B: 30-55 mL/min/kg)
